Laboratory results: ChEMBL document CHEMBL1201862, “PubChem BioAssay data set” (2004)
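Method: 48-hour compound exposure of cells in 96-well plates, five concentrations, linear interpolation of endpoints. At the GI50, growth is halved.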 The source made the active and inactive calls. Rule as the data show it: active = GI50 up to about 1.1 µM and inactive = higher.

Key:
Test in all cases: inhibition of tumour cell growth, NCI panel, 48 h
UACC-257 = test system: UACC-257
A549 = test system: A549
HOP-92 = test system: HOP-92
DMS-273 = test system: DMS-273
HOP-62 = test system: HOP-62
UACC-62 = test system: UACC-62
SNB-78 = test system: SNB-78
RPMI-8226 = test system: RPMI-8226
SF-539 = test system: SF-539
IGROV-1 = test system: IGROV-1
LXFL 529 = test system: LXFL 529
COLO 205 = test system: COLO 205
KM-20L2 = test system: KM-20L2
DLD-1 = test system: DLD-1
Malme-3M = test system: Malme-3M
M19-MEL = test system: M19-MEL
SNB-75 = test system: SNB-75
HCC 2998 = test system: HCC 2998
MOLT-4 = test system: MOLT-4
EKVX = test system: EKVX
SK-OV-3 = test system: SK-OV-3
SK-MEL-28 = test system: SK-MEL-28
NCI-H460 = test system: NCI-H460
OVCAR-5 = test system: OVCAR-5
A498 = test system: A498
SN12C = test system: SN12C
M14 = test system: M14
UO-31 = test system: UO-31
SF-268 = test system: SF-268
SK-MEL-5 = test system: SK-MEL-5
OVCAR-8 = test system: OVCAR-8
HT-29 = test system: HT-29
SK-MEL-2 = test system: SK-MEL-2
ACHN = test system: ACHN
DMS-114 = test system: DMS-114
HCT-15 = test system: HCT-15
HCT-116 = test system: HCT-116
SR = test system: SR
KM12 = test system: KM12
SNB-19 = test system: SNB-19
XF498 = test system: XF498
CCRF-CEM = test system: CCRF-CEM
K562 = test system: K562
NCI-H522 = test system: NCI-H522
RXF 631 = test system: RXF 631
SW-620 = test system: SW-620
786-0 = test system: 786-0
OVCAR-3 = test system: OVCAR-3
NCI-H226 = test system: NCI-H226
U-251 = test system: U-251
NCI-H23 = test system: NCI-H23
RXF 393 = test system: RXF 393
NCI/ADR-RES = test system: NCI/ADR-RES
T47D = test system: T47D
MDA-MB-231 = test system: MDA-MB-231
MCF7 = test system: MCF7
MDA-MB-435 = test system: MDA-MB-435
OVCAR-4 = test system: OVCAR-4
TK-10 = test system: TK-10
DU-145 = test system: DU-145
SF-295 = test system: SF-295
HL-60 = test system: HL-60
PC-3 = test system: PC-3
MDA-N = test system: MDA-N
HOP-18 = test system: HOP-18
CAKI-1 = test system: CAKI-1
LOX IMVI = test system: LOX IMVI
Hs-578T = test system: Hs-578T
BT-549 = test system: BT-549

## COc1cccc(/C=C/c2cc(OC)c(OC)c(OC)c2)c1
UACC-257
  GI50: 38.3 µM (inactive)
A549
  GI50: 42.3 µM (inactive)
HOP-92
  GI50: > 100 µM (inactive)
DMS-273
  GI50: 27.8 µM (inactive)
HOP-62
  GI50: 37 µM (inactive)
UACC-62
  GI50: 25.4 µM (inactive)
SNB-78
  GI50: 21.8 µM (inactive)
RPMI-8226
  GI50: 34 µM (inactive)
SF-539
  GI50: 24.4 µM (inactive)
IGROV-1
  GI50: 47.2 µM (inactive)
LXFL 529
  GI50: 61.7 µM (inactive)
COLO 205
  GI50: 34.4 µM (inactive)
KM-20L2
  GI50: 19.3 µM (inactive)
DLD-1
  GI50: 18.3 µM (inactive)
Malme-3M
  GI50: 34.8 µM (inactive)
M19-MEL
  GI50: 70.1 µM (inactive)
SNB-75
  GI50: 18.5 µM (inactive)
HCC 2998
  GI50: > 100 µM (inactive)
MOLT-4
  GI50: 36.6 µM (inactive)
EKVX
  GI50: 36.2 µM (inactive)
SK-OV-3
  GI50: 38.2 µM (inactive)
SK-MEL-28
  GI50: 38.5 µM (inactive)
NCI-H460
  GI50: 43.4 µM (inactive)
OVCAR-5
  GI50: > 100 µM (inactive)
A498
  GI50: 57 µM (inactive)
SN12C
  GI50: 52.2 µM (inactive)
M14
  GI50: 23.8 µM (inactive)
UO-31
  GI50: 21.2 µM (inactive)
SF-268
  GI50: 68.9 µM (inactive)
SK-MEL-5
  GI50: 24.8 µM (inactive)
OVCAR-8
  GI50: 55.6 µM (inactive)
HT-29
  GI50: 34.4 µM (inactive)
SK-MEL-2
  GI50: 62.7 µM (inactive)
ACHN
  GI50: 87.5 µM (inactive)
DMS-114
  GI50: 24.9 µM (inactive)
HCT-15
  GI50: 53 µM
HCT-116
  GI50: 33 µM (inactive)
SR
  GI50: 35.1 µM (inactive)
KM12
  GI50: 66.4 µM (inactive)
SNB-19
  GI50: 42.9 µM (inactive)
XF498
  GI50: 33.7 µM (inactive)
CCRF-CEM
  GI50: 33.7 µM (inactive)
K562
  GI50: 33.3 µM (inactive)
NCI-H522
  GI50: > 100 µM (inactive)
RXF 631
  GI50: 23.7 µM (inactive)
SW-620
  GI50: 50.4 µM (inactive)
786-0
  GI50: 30.5 µM (inactive)
OVCAR-3
  GI50: 26.8 µM (inactive)
NCI-H226
  GI50: 18.4 µM (inactive)
U-251
  GI50: 36.5 µM (inactive)
NCI-H23
  GI50: 30.3 µM (inactive)

## Nc1ccc(S(=O)(=O)Nc2cnc3c(Cl)cccc3n2)cc1 [CHLORSULFAQUINOXALINE]
UACC-257
  GI50: 344 µM (inactive)
A549
  GI50: 117 µM (inactive)
HOP-92
  GI50: 71.3 µM (inactive)
RXF 393
  GI50: 82.2 µM (inactive)
NCI/ADR-RES
  GI50: 47.5 µM (inactive)
DMS-273
  GI50: 152 µM (inactive)
HOP-62
  GI50: 78.9 µM (inactive)
UACC-62
  GI50: 36.7 µM (inactive)
SNB-78
  GI50: 151 µM (inactive)
RPMI-8226
  GI50: 129 µM (inactive)
T47D
  GI50: 96.2 µM (inactive)
SF-539
  GI50: 126 µM (inactive)
IGROV-1
  GI50: 2.58 µM (inactive)
LXFL 529
  GI50: 31.4 µM (inactive)
COLO 205
  GI50: 23.9 µM (inactive)
KM-20L2
  GI50: 292 µM (inactive)
DLD-1
  GI50: 93.1 µM (inactive)
MDA-MB-231
  GI50: > 69.7 µM (inactive)
Malme-3M
  GI50: 164 µM (inactive)
M19-MEL
  GI50: 232 µM (inactive)
SNB-75
  GI50: 181 µM (inactive)
HCC 2998
  GI50: 99.5 µM (inactive)
MOLT-4
  GI50: 75.2 µM (inactive)
MCF7
  GI50: 101 µM (inactive)
MDA-MB-435
  GI50: > 70 µM (inactive)
OVCAR-4
  GI50: 125 µM (inactive)
TK-10
  GI50: 41.6 µM (inactive)
EKVX
  GI50: 222 µM (inactive)
SK-OV-3
  GI50: > 33 µM (inactive)
DU-145
  GI50: 175 µM (inactive)
SK-MEL-28
  GI50: 151 µM (inactive)
SF-295
  GI50: 31.4 µM (inactive)
NCI-H460
  GI50: 129 µM (inactive)
OVCAR-5
  GI50: 192 µM (inactive)
A498
  GI50: 131 µM (inactive)
SN12C
  GI50: 94.4 µM (inactive)
M14
  GI50: 274 µM (inactive)
UO-31
  GI50: 151 µM (inactive)
HL-60
  GI50: 167 µM (inactive)
SF-268
  GI50: 197 µM (inactive)
PC-3
  GI50: 86.1 µM (inactive)
SK-MEL-5
  GI50: 144 µM (inactive)
OVCAR-8
  GI50: 144 µM (inactive)
HT-29
  GI50: 248 µM (inactive)
MDA-N
  GI50: 24.3 µM (inactive)
SK-MEL-2
  GI50: 226 µM (inactive)
ACHN
  GI50: 107 µM (inactive)
HOP-18
  GI50: 189 µM (inactive)
DMS-114
  GI50: 2.94 µM (inactive)
CAKI-1
  GI50: 56.2 µM (inactive)
HCT-15
  GI50: 53 µM
LOX IMVI
  GI50: 84.9 µM (inactive)
HCT-116
  GI50: 7.28 µM (inactive)
SR
  GI50: 56.4 µM (inactive)
KM12
  GI50: 147 µM (inactive)
SNB-19
  GI50: 92.3 µM (inactive)
XF498
  GI50: 275 µM (inactive)
CCRF-CEM
  GI50: 52.6 µM (inactive)
Hs-578T
  GI50: 63.5 µM (inactive)
K562
  GI50: 23.2 µM (inactive)
NCI-H522
  GI50: 29 µM (inactive)
SW-620
  GI50: 26.1 µM (inactive)
786-0
  GI50: 86.3 µM (inactive)
BT-549
  GI50: > 60.5 µM (inactive)
OVCAR-3
  GI50: 167 µM (inactive)
NCI-H226
  GI50: 163 µM (inactive)
U-251
  GI50: 207 µM (inactive)
NCI-H23
  GI50: 163 µM (inactive)
